Source: patent US20230085307A1, “PYRIDAZINONE COMPOUND AND HERBICIDE” (NISSAN CHEMICAL CORPORATION, priority 2019, published 2023)

Experiments:
[1] = test system: lambsquarters; assay: Test Example 5: herbicidal effect by foliage application, plastic box (Table 20, symbol O); type: in vivo, lambsquarters (Chenopodium album); conditions: foliage application; for O: lambsquarters, herbicidal effect (criteria 0-5): AAH 320 g/ha; for O: lambsquarters, herbicidal effect grade: three weeks after application
Outline: (§1)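 Post-emergence foliar test in sterilized diluvial soil. Compound applied as water-diluted emulsion at a predetermined rate to 14-day-old plants; evaluation at three weeks.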

[2] = test system: wild oat; assay: Test Example 5: herbicidal effect by foliage application, plastic box (Table 20, symbol I); type: in vivo, wild oat (Avena fatua); conditions: foliage application; for I: wild oat, herbicidal effect (criteria 0-5): AAH 320 g/ha; for I: wild oat, herbicidal effect grade: three weeks after application
Outline: as §1

[3] = test system: redroot pigweed; assay: Test Example 5: herbicidal effect by foliage application, plastic box (Table 20, symbol N); type: in vivo, redroot pigweed (Amaranthus retroflexus); conditions: foliage application; for N: redroot pigweed, herbicidal effect (criteria 0-5): AAH 320 g/ha; for N: redroot pigweed, herbicidal effect grade: three weeks after application
Outline: as §1

[4] = test system: Chinese sprangletop; assay: Test Example 3: herbicidal effect by foliage application, Wagner pot (Table 18, symbol D); type: in vivo, chinese sprangletop (Leptochloa chinensis); conditions: amount of applied herbicide 320 g/ha
Outline: (§2)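 Plants were sown in alluvial soil held under 0.1–0.5 cm standing water and grown 14 days in a greenhouse at 25–30 °C. An emulsifiable formulation, water-diluted to the set dose, was then sprayed onto the foliage, and effects were scored three weeks later using previously defined criteria.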

[5] = test system: southern crabgrass; assay: Test Example 5: herbicidal effect by foliage application, plastic box (Table 20, symbol F); type: in vivo, southern crabgrass (Digitaria ciliaris); conditions: foliage application; for F: southern crabgrass, herbicidal effect (criteria 0-5): AAH 320 g/ha; for F: southern crabgrass, herbicidal effect grade: three weeks after application
Outline: as §1

[6] = test system: rice flat sedge; assay: Test Example 3: herbicidal effect by foliage application, Wagner pot (Table 18, symbol E); type: in vivo, rice flat sedge (Cyperus iria); conditions: amount of applied herbicide 320 g/ha
Outline: as §2

[7] = test system: barnyard grass; assay: Test Example 3: herbicidal effect by foliage application, Wagner pot (Table 18, symbol H); type: in vivo, barnyard grass (Echinochloa crus-galli); conditions: amount of applied herbicide 320 g/ha
Outline: as §2

[8] = test system: Italian ryegrass; assay: Test Example 5: herbicidal effect by foliage application, plastic box (Table 20, symbol K); type: in vivo, Italian ryegrass (Lolium multiflorum); conditions: foliage application; for K: Italian ryegrass, herbicidal effect (criteria 0-5): AAH 320 g/ha; for K: Italian ryegrass, herbicidal effect grade: three weeks after application
Outline: as §1

[9] = test system: barnyard grass; assay: Test Example 5: herbicidal effect by foliage application, plastic box (Table 20, symbol H); type: in vivo, barnyard grass (Echinochloa crus-galli); conditions: foliage application; for H: barnyard grass, herbicidal effect (criteria 0-5): AAH 320 g/ha; for H: barnyard grass, herbicidal effect grade: three weeks after application
Outline: as §1

[10] = test system: persian speedwell; assay: Test Example 5: herbicidal effect by foliage application, plastic box (Table 20, symbol R); type: in vivo, Persian speedwell (Veronica persica); conditions: foliage application; for R: persian speedwell, herbicidal effect (criteria 0-5): AAH 320 g/ha; for R: persian speedwell, herbicidal effect grade: three weeks after application
Outline: as §1

[11] = test system: green foxtail; assay: Test Example 5: herbicidal effect by foliage application, plastic box (Table 20, symbol G); type: in vivo, green foxtail (Setaria viridis); conditions: foliage application; for G: green foxtail, herbicidal effect (criteria 0-5): AAH 320 g/ha; for G: green foxtail, herbicidal effect grade: three weeks after application
Outline: as §1

[12] = test system: windgrass; assay: Test Example 5: herbicidal effect by foliage application, plastic box (Table 20, symbol L); type: in vivo, windgrass (Apera spica-venti); conditions: foliage application; for L: windgrass, herbicidal effect (criteria 0-5): AAH 320 g/ha; for L: windgrass, herbicidal effect grade: three weeks after application
Outline: as §1

[13] = test system: blackgrass; assay: Test Example 5: herbicidal effect by foliage application, plastic box (Table 20, symbol J); type: in vivo, blackgrass (Alopecurus myosuroides); conditions: foliage application; for J: blackgrass, herbicidal effect (criteria 0-5): AAH 320 g/ha; for J: blackgrass, herbicidal effect grade: three weeks after application
Outline: as §1

[14] = test system: velvetleaf; assay: Test Example 5: herbicidal effect by foliage application, plastic box (Table 20, symbol M); type: in vivo, velvetleaf (Abutilon theophrasti); conditions: foliage application; for M: velvetleaf, herbicidal effect (criteria 0-5): AAH 320 g/ha; for M: velvetleaf, herbicidal effect grade: three weeks after application
Outline: as §1

[15] = test system: chickweed; assay: Test Example 5: herbicidal effect by foliage application, plastic box (Table 20, symbol P); type: in vivo, common chickweed (Stellaria media); conditions: foliage application; for P: chickweed, herbicidal effect (criteria 0-5): AAH 320 g/ha; for P: chickweed, herbicidal effect grade: three weeks after application
Outline: as §1

[16] = 320 g/ha, evaluated three weeks after application
[17] = evaluated three weeks after application

Compound	herbicidal effect on D: Chinese sprangletop [4]	herbicidal effect on E: rice flat sedge [6]	herbicidal effect on H: barnyard grass [7]	O: lambsquarters, herbicidal effect (criteria 0-5) [1, 17]	I: wild oat, herbicidal effect (criteria 0-5) [2, 17]	N: redroot pigweed, herbicidal effect (criteria 0-5) [3, 17]	F: southern crabgrass, herbicidal effect (criteria 0-5) [5, 17]	K: Italian ryegrass, herbicidal effect (criteria 0-5) [8, 17]	H: barnyard grass, herbicidal effect (criteria 0-5) [9, 17]	R: persian speedwell, herbicidal effect (criteria 0-5) [10, 17]	G: green foxtail, herbicidal effect (criteria 0-5) [11, 17]	L: windgrass, herbicidal effect (criteria 0-5) [12, 17]	J: blackgrass, herbicidal effect (criteria 0-5) [13, 17]	M: velvetleaf, herbicidal effect (criteria 0-5) [14, 17]	P: chickweed, herbicidal effect (criteria 0-5) [15, 17]	O: lambsquarters, herbicidal effect grade ([1]; 320 g/ha)	I: wild oat, herbicidal effect grade ([2]; 320 g/ha)	N: redroot pigweed, herbicidal effect grade ([3]; 320 g/ha)	F: southern crabgrass, herbicidal effect grade ([5]; 320 g/ha)	K: Italian ryegrass, herbicidal effect grade ([8]; 320 g/ha)	other results
Cc1nn(C)c(=O)c(-c2c(-c3cccc(SC(C)C)c3)sc3ccc(F)cc23)c1O [2-250]	2 (Herbicidal rate of 20% or more and less than 40%)	3 (Herbicidal rate of 40% or more and less than 70%)	3 (Herbicidal rate of 40% or more and less than 70%)																		herbicidal effect on O: lambsquarters (criteria 0-5) [1, 16]: 3 (Herbicidal rate of 40% or more and less than 70%); herbicidal effect on I: wild oat (criteria 0-5) [2, 16]: 2 (Herbicidal rate of 20% or more and less than 40%); herbicidal effect on N: redroot pigweed (criteria 0-5) [3, 16]: 5 (Herbicidal rate of 90% or more (almost completely withered)); herbicidal effect on F: southern crabgrass (criteria 0-5) [5, 16]: 0 (Herbicidal rate of 5% or less (almost no effect)); herbicidal effect on K: Italian ryegrass (criteria 0-5) [8, 16]: 1 (Herbicidal rate of 5% or more and less than 20%); herbicidal effect on H: barnyard grass (criteria 0-5) [9, 16]: 0 (Herbicidal rate of 5% or less (almost no effect)); herbicidal effect on R: persian speedwell (criteria 0-5) [10, 16]: 5 (Herbicidal rate of 90% or more (almost completely withered)); herbicidal effect on G: green foxtail (criteria 0-5) [11, 16]: 0 (Herbicidal rate of 5% or less (almost no effect)); herbicidal effect on L: windgrass (criteria 0-5) [12, 16]: 3 (Herbicidal rate of 40% or more and less than 70%); herbicidal effect on J: blackgrass (criteria 0-5) [13, 16]: 3 (Herbicidal rate of 40% or more and less than 70%); herbicidal effect on M: velvetleaf (criteria 0-5) [14, 16]: 2 (Herbicidal rate of 20% or more and less than 40%); herbicidal effect on P: chickweed (criteria 0-5) [15, 16]: 5 (Herbicidal rate of 90% or more (almost completely withered))
Cc1nn(C)c(=O)c(-c2c(-c3cccc(SCC(F)(F)F)c3)sc3ccc(F)cc23)c1O [2-262]	0 (Herbicidal rate of 5% or less (almost no effect))	2 (Herbicidal rate of 20% or more and less than 40%)	3 (Herbicidal rate of 40% or more and less than 70%)	3 (Herbicidal rate of 40% or more and less than 70%)	3 (Herbicidal rate of 40% or more and less than 70%)	5 (Herbicidal rate of 90% or more (almost completely withered))	0 (Herbicidal rate of 5% or less (almost no effect))	3 (Herbicidal rate of 40% or more and less than 70%)	0 (Herbicidal rate of 5% or less (almost no effect))	5 (Herbicidal rate of 90% or more (almost completely withered))	0 (Herbicidal rate of 5% or less (almost no effect))	4 (Herbicidal rate of 70% or more and less than 90%)	3 (Herbicidal rate of 40% or more and less than 70%)	4 (Herbicidal rate of 70% or more and less than 90%)	5 (Herbicidal rate of 90% or more (almost completely withered))						
Cc1nn(C)c(=O)c(-c2c(-c3ccc(OC(F)F)cc3)sc3ccc(F)cc23)c1OC(=O)C(C)(C)c1ccccc1 [2-282]	0 (Herbicidal rate of 5% or less (almost no effect))	0 (Herbicidal rate of 5% or less (almost no effect))	3 (Herbicidal rate of 40% or more and less than 70%)	5 (Herbicidal rate of 90% or more (almost completely withered))	0 (Herbicidal rate of 5% or less (almost no effect))	5 (Herbicidal rate of 90% or more (almost completely withered))	0 (Herbicidal rate of 5% or less (almost no effect))	0 (Herbicidal rate of 5% or less (almost no effect))	1 (Herbicidal rate of 5% or more and less than 20%)	5 (Herbicidal rate of 90% or more (almost completely withered))	4 (Herbicidal rate of 70% or more and less than 90%)	0 (Herbicidal rate of 5% or less (almost no effect))	0 (Herbicidal rate of 5% or less (almost no effect))	4 (Herbicidal rate of 70% or more and less than 90%)	5 (Herbicidal rate of 90% or more (almost completely withered))						
Cc1nn(C)c(=O)c(-c2c(-c3ccc(OC(F)F)cc3)sc3ccc(F)cc23)c1OC(=O)SC(C)(C)C [2-296]	2 (Herbicidal rate of 20% or more and less than 40%)	3 (Herbicidal rate of 40% or more and less than 70%)	5 (Herbicidal rate of 90% or more (almost completely withered))	5 (Herbicidal rate of 90% or more (almost completely withered))	0 (Herbicidal rate of 5% or less (almost no effect))	5 (Herbicidal rate of 90% or more (almost completely withered))	0 (Herbicidal rate of 5% or less (almost no effect))	1 (Herbicidal rate of 5% or more and less than 20%)	4 (Herbicidal rate of 70% or more and less than 90%)	5 (Herbicidal rate of 90% or more (almost completely withered))	5 (Herbicidal rate of 90% or more (almost completely withered))	0 (Herbicidal rate of 5% or less (almost no effect))	3 (Herbicidal rate of 40% or more and less than 70%)	5 (Herbicidal rate of 90% or more (almost completely withered))	5 (Herbicidal rate of 90% or more (almost completely withered))						
Cc1nn(Cc2ccccc2)c(=O)c(-c2c(-c3ccc(C(F)(F)F)cc3)sc3ccc(F)cc23)c1O [2-436]	0 (Herbicidal rate of 5% or less (almost no effect))	2 (Herbicidal rate of 20% or more and less than 40%)	3 (Herbicidal rate of 40% or more and less than 70%)													0 (Herbicidal rate of 5% or less (almost no effect))	0 (Herbicidal rate of 5% or less (almost no effect))	3 (Herbicidal rate of 40% or more and less than 70%)	0 (Herbicidal rate of 5% or less (almost no effect))	0 (Herbicidal rate of 5% or less (almost no effect))	H: barnyard grass, herbicidal effect grade ([9]; 320 g/ha): 0 (Herbicidal rate of 5% or less (almost no effect)); R: persian speedwell, herbicidal effect grade ([10]; 320 g/ha): 0 (Herbicidal rate of 5% or less (almost no effect)); G: green foxtail, herbicidal effect grade ([11]; 320 g/ha): 0 (Herbicidal rate of 5% or less (almost no effect)); L: windgrass, herbicidal effect grade ([12]; 320 g/ha): 0 (Herbicidal rate of 5% or less (almost no effect)); J: blackgrass, herbicidal effect grade ([13]; 320 g/ha): 0 (Herbicidal rate of 5% or less (almost no effect)); M: velvetleaf, herbicidal effect grade ([14]; 320 g/ha): 0 (Herbicidal rate of 5% or less (almost no effect)); P: chickweed, herbicidal effect grade ([15]; 320 g/ha): 0 (Herbicidal rate of 5% or less (almost no effect))
COCCOCOc1c(C)nn(C)c(=O)c1-c1c(-c2ccc(Oc3ncc(C(F)(F)F)cc3Cl)cc2)sc2ccc(F)cc12 [2-468]	2 (Herbicidal rate of 20% or more and less than 40%)	2 (Herbicidal rate of 20% or more and less than 40%)	3 (Herbicidal rate of 40% or more and less than 70%)													2 (Herbicidal rate of 20% or more and less than 40%)	0 (Herbicidal rate of 5% or less (almost no effect))	1 (Herbicidal rate of 5% or more and less than 20%)	0 (Herbicidal rate of 5% or less (almost no effect))	0 (Herbicidal rate of 5% or less (almost no effect))	H: barnyard grass, herbicidal effect grade ([9]; 320 g/ha): 5 (Herbicidal rate of 90% or more (almost completely withered)); R: persian speedwell, herbicidal effect grade ([10]; 320 g/ha): 3 (Herbicidal rate of 40% or more and less than 70%); G: green foxtail, herbicidal effect grade ([11]; 320 g/ha): 0 (Herbicidal rate of 5% or less (almost no effect)); L: windgrass, herbicidal effect grade ([12]; 320 g/ha): 0 (Herbicidal rate of 5% or less (almost no effect)); J: blackgrass, herbicidal effect grade ([13]; 320 g/ha): 0 (Herbicidal rate of 5% or less (almost no effect)); M: velvetleaf, herbicidal effect grade ([14]; 320 g/ha): 0 (Herbicidal rate of 5% or less (almost no effect)); P: chickweed, herbicidal effect grade ([15]; 320 g/ha): 0 (Herbicidal rate of 5% or less (almost no effect))
